What was measured:
[1] = Stability of substrates and metabolites in quality control samples (benchtop, autosampler, freeze-thaw); type: physicochemical; settings: for Autosampler stability (24 h) Av. Accuracy (%): 10° C for 24 hours in the autosampler; for 3x freeze-thaw Av. Accuracy (%): after three freeze-thaw cycles; for Benchtop stability (19 h) Ac. Accuracy (%): room temperature for 19 hours
Source text: The method was validated for intra- and interday accuracy and precision, stability, and matrix effects. […] Validation details are provided in Supplementary Tables 5–7 and supplemental Fig. 3. Glucuronidase/sulfatase digests were used to isolate CYP-specific metabolic activities, reducing interference from polymorphic UDP-glucuronosyltransferase (UGT) and sulfotransferase isoforms.
Supplemental table 6: Stability of the substrates and metabolites. Quality control samples were left at room temperature for 19 hours (benchtop stability) and at 10° C for 24 hours in the autosampler (autosampler stability) or were measured after three freeze-thaw cycles. Stability samples were measured against a freshly prepared set of calibrators and quality control samples.

[2] = Determination of PCB concentrations in plasma of HELPcB and control participants; type: in vivo; settings: human plasma, N 10; for PCB plasma concentration, Geometric mean, HELPcB: HELPcB group; for PCB plasma concentration, Geometric mean, Control: control group
Experimental: The laboratory regularly participates in round robins for the determination of PCBs in plasma (www.g-equas.de).
Plasma concentrations of PCB congeners were quantified in blood samples from all participants using gas chromatography/mass spectrometry (GC–MS) (Fig. 2A and Supplementary Table 2). A total of 19 PCB congeners were measured in control (n = 10) and HELPcB (n = 10) participants, with PCBs detected in all individuals. […] In the control group, PCB plasma concentrations primarily reflected background environmental exposure, such as dietary intake, representing the general population’s burden.

## CC(C)NC(=O)NS(=O)(=O)c1cnccc1Nc1cccc(CO)c1 [OH-torsemide]
[1]; QC conc. 1 ng/ml
  Autosampler stability (24 h) Av. Accuracy (%): 109,17%
  3x freeze-thaw Av. Accuracy (%): 105,26%
  Benchtop stability (19 h) Ac. Accuracy (%): 106,91%
[1]; QC conc. 2 ng/ml
  Autosampler stability (24 h) Av. Accuracy (%): 113,11%
  3x freeze-thaw Av. Accuracy (%): 105,85%
  Benchtop stability (19 h) Ac. Accuracy (%): 107,98%
[1]; QC conc. 6 ng/ml
  Autosampler stability (24 h) Av. Accuracy (%): 109,32%
  3x freeze-thaw Av. Accuracy (%): 107,78%
  Benchtop stability (19 h) Ac. Accuracy (%): 111,3%
[1]; QC conc. 240 ng/ml
  Autosampler stability (24 h) Av. Accuracy (%): 108,82%
  3x freeze-thaw Av. Accuracy (%): 104,11%
  Benchtop stability (19 h) Ac. Accuracy (%): 106,75%
[1]; QC conc. 600 ng/ml
  Autosampler stability (24 h) Av. Accuracy (%): 99,55%
  3x freeze-thaw Av. Accuracy (%): 96,28%
  Benchtop stability (19 h) Ac. Accuracy (%): 99,14%

## Clc1ccc(-c2ccc(Cl)cc2Cl)cc1 [PCB 28]
[2]
  PCB plasma concentration, Geometric mean, HELPcB: 0.014 ng/mL
  PCB plasma concentration, Geometric mean, Control: 0.006 ng/mL

## Clc1ccc(Cl)c(-c2cc(Cl)ccc2Cl)c1 [PCB 52]
[2]
  PCB plasma concentration, Geometric mean, HELPcB: BLQ
  PCB plasma concentration, Geometric mean, Control: BLQ

## Clc1ccc(-c2ccc(Cl)c(Cl)c2)cc1Cl [PCB 77]
[2]
  PCB plasma concentration, Geometric mean, HELPcB: BLQ
  PCB plasma concentration, Geometric mean, Control: BLQ

## Clc1ccc(-c2cc(Cl)c(Cl)c(Cl)c2)cc1 [PCB 81]
[2]
  PCB plasma concentration, Geometric mean, HELPcB: BLQ
  PCB plasma concentration, Geometric mean, Control: BLQ

## Clc1ccc(Cl)c(-c2cc(Cl)c(Cl)cc2Cl)c1 [PCB 101]
[2]
  PCB plasma concentration, Geometric mean, HELPcB: 0.005 ng/mL
  PCB plasma concentration, Geometric mean, Control: BLQ

## Clc1ccc(-c2ccc(Cl)c(Cl)c2Cl)cc1Cl [PCB 105]
[2]
  PCB plasma concentration, Geometric mean, HELPcB: 0.014 ng/mL
  PCB plasma concentration, Geometric mean, Control: BLQ

## Clc1ccc(-c2cc(Cl)c(Cl)c(Cl)c2Cl)cc1 [PCB 114]
[2]
  PCB plasma concentration, Geometric mean, HELPcB: 0.008 ng/mL
  PCB plasma concentration, Geometric mean, Control: BLQ

## Clc1ccc(-c2cc(Cl)c(Cl)c(Cl)c2)c(Cl)c1 [PCB 123]
[2]
  PCB plasma concentration, Geometric mean, HELPcB: BLQ
  PCB plasma concentration, Geometric mean, Control: BLQ

## Clc1ccc(-c2cc(Cl)c(Cl)c(Cl)c2)cc1Cl [PCB 126]
[2]
  PCB plasma concentration, Geometric mean, HELPcB: BLQ
  PCB plasma concentration, Geometric mean, Control: BLQ

## Clc1cc(Cl)c(-c2cc(Cl)c(Cl)cc2Cl)cc1Cl [PCB 153]
[2]
  PCB plasma concentration, Geometric mean, HELPcB: 0.919 ng/mL
  PCB plasma concentration, Geometric mean, Control: 0.297 ng/mL

## Clc1ccc(-c2cc(Cl)c(Cl)c(Cl)c2Cl)cc1Cl [PCB 156]
[2]
  PCB plasma concentration, Geometric mean, HELPcB: 0.097 ng/mL
  PCB plasma concentration, Geometric mean, Control: 0.036 ng/mL

## Cn1c(=O)[nH]c2ncn(C)c2c1=O [Paraxanthine]
[1]; QC conc. 10 ng/ml
  Autosampler stability (24 h) Av. Accuracy (%): 96,28%
  3x freeze-thaw Av. Accuracy (%): 96,57%
  Benchtop stability (19 h) Ac. Accuracy (%): 89,99%
[1]; QC conc. 30 ng/ml
  Autosampler stability (24 h) Av. Accuracy (%): 105,74%
  3x freeze-thaw Av. Accuracy (%): 103,75%
  Benchtop stability (19 h) Ac. Accuracy (%): 105,38%
[1]; QC conc. 1200 ng/ml
  Autosampler stability (24 h) Av. Accuracy (%): 105,06%
  3x freeze-thaw Av. Accuracy (%): 100,61%
  Benchtop stability (19 h) Ac. Accuracy (%): 103,5%
[1]; QC conc. 3000 ng/ml
  Autosampler stability (24 h) Av. Accuracy (%): 93,91%
  3x freeze-thaw Av. Accuracy (%): 92,32%
  Benchtop stability (19 h) Ac. Accuracy (%): 94,2%

## Cn1c(=O)c2c(ncn2C)n(C)c1=O [caffeine, reference compound]
[1]; QC conc. 10 ng/ml
  3x freeze-thaw Av. Accuracy (%): 107,62%
[1]; QC conc. 30 ng/ml
  3x freeze-thaw Av. Accuracy (%): 107,18%
[1]; QC conc. 1200 ng/ml
  3x freeze-thaw Av. Accuracy (%): 105,12%
[1]; QC conc. 3000 ng/ml
  3x freeze-thaw Av. Accuracy (%): 97,54%

## O=C1Nc2ccc(Cl)cc2[C@@](C#CC2CC2)(C(F)(F)F)O1 [efavirenz, reference compound]
[1]; QC conc. 0,63 ng/ml
  Autosampler stability (24 h) Av. Accuracy (%): 109,58%
  3x freeze-thaw Av. Accuracy (%): 124,41%
  Benchtop stability (19 h) Ac. Accuracy (%): 92,21%
[1]; QC conc. 150 ng/ml
  Autosampler stability (24 h) Av. Accuracy (%): 115,3%
  3x freeze-thaw Av. Accuracy (%): 112,08%
  Benchtop stability (19 h) Ac. Accuracy (%): 111,5%
[1]; QC conc. 375 ng/ml
  Autosampler stability (24 h) Av. Accuracy (%): 106,16%
  3x freeze-thaw Av. Accuracy (%): 107,17%
  Benchtop stability (19 h) Ac. Accuracy (%): 104,9%
[1]; QC conc. 1,25 ng/ml
  Autosampler stability (24 h) Av. Accuracy (%): 114,46%
  3x freeze-thaw Av. Accuracy (%): 117,78%
  Benchtop stability (19 h) Ac. Accuracy (%): 102,48%
[1]; QC conc. 3,75 ng/ml
  Autosampler stability (24 h) Av. Accuracy (%): 114,56%
  3x freeze-thaw Av. Accuracy (%): 111,15%
  Benchtop stability (19 h) Ac. Accuracy (%): 107,06%

## COCCc1ccc(OCC(O)CNC(C)C)cc1 (centres unmarked) [metoprolol, reference compound]
[1]; QC conc. 0,5 ng/ml
  Autosampler stability (24 h) Av. Accuracy (%): 105,36%
  3x freeze-thaw Av. Accuracy (%): 109,56%
  Benchtop stability (19 h) Ac. Accuracy (%): 106,29%
[1]; QC conc. 0,25 ng/ml
  Autosampler stability (24 h) Av. Accuracy (%): 105,01%
  3x freeze-thaw Av. Accuracy (%): 99,7%
  Benchtop stability (19 h) Ac. Accuracy (%): 92,77%
[1]; QC conc. 60 ng/ml
  Autosampler stability (24 h) Av. Accuracy (%): 111,39%
  3x freeze-thaw Av. Accuracy (%): 105,26%
  Benchtop stability (19 h) Ac. Accuracy (%): 110,41%
[1]; QC conc. 150 ng/ml
  Autosampler stability (24 h) Av. Accuracy (%): 100,37%
  3x freeze-thaw Av. Accuracy (%): 98,84%
  Benchtop stability (19 h) Ac. Accuracy (%): 102,76%
[1]; QC conc. 1,5 ng/ml
  Autosampler stability (24 h) Av. Accuracy (%): 112,83%
  3x freeze-thaw Av. Accuracy (%): 103,63%
  Benchtop stability (19 h) Ac. Accuracy (%): 111,4%

## Cc1ncc2n1-c1ccc(Cl)cc1C(c1ccccc1F)=NC2 [midazolam, reference compound]
[1]; QC conc. 0,1 ng/ml
  Autosampler stability (24 h) Av. Accuracy (%): 107,46%
  3x freeze-thaw Av. Accuracy (%): 104,96%
  Benchtop stability (19 h) Ac. Accuracy (%): 106,81%
[1]; QC conc. 0,3 ng/ml
  Autosampler stability (24 h) Av. Accuracy (%): 104,87%
  3x freeze-thaw Av. Accuracy (%): 98,61%
  Benchtop stability (19 h) Ac. Accuracy (%): 104,39%
[1]; QC conc. 0,05 ng/ml
  Autosampler stability (24 h) Av. Accuracy (%): 103,51%
  3x freeze-thaw Av. Accuracy (%): 109,93%
  Benchtop stability (19 h) Ac. Accuracy (%): 89,44%
[1]; QC conc. 12 ng/ml
  Autosampler stability (24 h) Av. Accuracy (%): 110,93%
  3x freeze-thaw Av. Accuracy (%): 103,85%
  Benchtop stability (19 h) Ac. Accuracy (%): 109,38%
[1]; QC conc. 30 ng/ml
  Autosampler stability (24 h) Av. Accuracy (%): 99,76%
  3x freeze-thaw Av. Accuracy (%): 97,41%
  Benchtop stability (19 h) Ac. Accuracy (%): 99,8%

## Cc1cccc(Nc2ccncc2S(=O)(=O)NC(=O)NC(C)C)c1 [torsemide, reference compound]
[1]; QC conc. 1 ng/ml
  Autosampler stability (24 h) Av. Accuracy (%): 105,13%
  3x freeze-thaw Av. Accuracy (%): 102,74%
  Benchtop stability (19 h) Ac. Accuracy (%): 97,46%
[1]; QC conc. 2 ng/ml
  Autosampler stability (24 h) Av. Accuracy (%): 108,32%
  3x freeze-thaw Av. Accuracy (%): 105,85%
  Benchtop stability (19 h) Ac. Accuracy (%): 107,17%
[1]; QC conc. 6 ng/ml
  Autosampler stability (24 h) Av. Accuracy (%): 108,92%
  3x freeze-thaw Av. Accuracy (%): 106,12%
  Benchtop stability (19 h) Ac. Accuracy (%): 107,51%
[1]; QC conc. 240 ng/ml
  Autosampler stability (24 h) Av. Accuracy (%): 109,92%
  3x freeze-thaw Av. Accuracy (%): 103,96%
  Benchtop stability (19 h) Ac. Accuracy (%): 108,15%
[1]; QC conc. 600 ng/ml
  Autosampler stability (24 h) Av. Accuracy (%): 97,91%
  3x freeze-thaw Av. Accuracy (%): 96,67%
  Benchtop stability (19 h) Ac. Accuracy (%): 99,27%

From article PMC12477080, “Polychlorinated biphenyls (PCBs) interact with drug metabolism in vivo” (Archives of Toxicology, 2025)
